According to PMC9929129, “Towards Translation of PqsR Inverse Agonists: From In Vitro Efficacy Optimization to In Vivo Proof‐of‐Principle” (Advanced Science, 2023):

Columns and labels:
[1] = Metabolic stability in mouse liver S9 fractions; format: in vitro ADME; settings: liver S9 fraction, read-out: Mouse liver S9 t½
[2] = molecular target: T1, mu (MOP) (h) (Homo sapiens, UniProt P35372); experiment: Cerep panel binding assay; settings: agonist radioligand
T1 construct: purchased Eurofins Pharma Discovery (Cerep) SafetyScreen44 Panel, ITEM P270
Procedure: (§1) 1.4 Safety Pharmacology of Compound 24
(§2) 1.4.1 Cerep panel (Eurofins)
(§3) Compound 24 was further profiled for its off-target interactions against a panel of 44 targets. The
(§4) screening was done by Eurofins Pharma Discovery within the SafetyScreen44 Panel (Cerep, ITEM
(§5) P270). In all assays binding/functional inhibition was determined at 10 µM.
(§6) Table S6. […]

[3] = molecular target: T2, 5-HT3 (h) (Homo sapiens, UniProt P46098); experiment: Cerep panel binding assay; settings: antagonist radioligand
T2 construct: purchased Eurofins Pharma Discovery (Cerep) SafetyScreen44 Panel, ITEM P270
Procedure: as §1, §2, §3, §4, §5, §6

[4] = molecular target: T3, 5-HT1B (h) (Homo sapiens, UniProt P28222); experiment: Cerep panel binding assay; settings: antagonist radioligand
T3 construct: Eurofins Pharma Discovery (CRO that ran the assay) SafetyScreen44 Panel (Cerep, ITEM P270)
Procedure: as §1, §2, §3, §4, §5, §6

[5] = molecular target: T4, A2A (h) (Homo sapiens, UniProt P29274); experiment: Cerep panel binding assay; settings: 10 µM, agonist radioligand
T4 construct: Eurofins Pharma Discovery (CRO that ran the assay) SafetyScreen44 Panel (Cerep, ITEM P270)
Procedure: as §1, §2, §3, §4, §5, §6

[6] = molecular target: T5, CB2 (h) (Homo sapiens, UniProt P34972); experiment: Cerep panel binding assay; settings: agonist radioligand
T5 construct: purchased Eurofins Pharma Discovery (Cerep) SafetyScreen44 Panel, ITEM P270
T5 sequence (P34972 whole entry): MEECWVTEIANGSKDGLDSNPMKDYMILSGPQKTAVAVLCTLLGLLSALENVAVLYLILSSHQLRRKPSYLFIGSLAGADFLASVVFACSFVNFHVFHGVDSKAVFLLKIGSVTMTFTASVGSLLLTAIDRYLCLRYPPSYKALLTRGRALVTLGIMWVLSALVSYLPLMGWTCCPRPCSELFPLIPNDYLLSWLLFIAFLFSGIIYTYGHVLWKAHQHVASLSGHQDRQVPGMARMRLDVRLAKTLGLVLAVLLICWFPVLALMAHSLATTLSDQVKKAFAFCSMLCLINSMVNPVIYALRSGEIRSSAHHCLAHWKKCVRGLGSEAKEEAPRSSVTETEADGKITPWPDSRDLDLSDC
Procedure: as §1, §2, §3, §4, §5, §6

[7] = molecular target: T6, AR (h) (Homo sapiens, UniProt P10275, T878A); experiment: Cerep panel binding assay; settings: agonist radioligand
T6 construct: purchased Eurofins Pharma Discovery (Cerep) SafetyScreen44 Panel, ITEM P270
T6 sequence (P10275 whole entry T878A): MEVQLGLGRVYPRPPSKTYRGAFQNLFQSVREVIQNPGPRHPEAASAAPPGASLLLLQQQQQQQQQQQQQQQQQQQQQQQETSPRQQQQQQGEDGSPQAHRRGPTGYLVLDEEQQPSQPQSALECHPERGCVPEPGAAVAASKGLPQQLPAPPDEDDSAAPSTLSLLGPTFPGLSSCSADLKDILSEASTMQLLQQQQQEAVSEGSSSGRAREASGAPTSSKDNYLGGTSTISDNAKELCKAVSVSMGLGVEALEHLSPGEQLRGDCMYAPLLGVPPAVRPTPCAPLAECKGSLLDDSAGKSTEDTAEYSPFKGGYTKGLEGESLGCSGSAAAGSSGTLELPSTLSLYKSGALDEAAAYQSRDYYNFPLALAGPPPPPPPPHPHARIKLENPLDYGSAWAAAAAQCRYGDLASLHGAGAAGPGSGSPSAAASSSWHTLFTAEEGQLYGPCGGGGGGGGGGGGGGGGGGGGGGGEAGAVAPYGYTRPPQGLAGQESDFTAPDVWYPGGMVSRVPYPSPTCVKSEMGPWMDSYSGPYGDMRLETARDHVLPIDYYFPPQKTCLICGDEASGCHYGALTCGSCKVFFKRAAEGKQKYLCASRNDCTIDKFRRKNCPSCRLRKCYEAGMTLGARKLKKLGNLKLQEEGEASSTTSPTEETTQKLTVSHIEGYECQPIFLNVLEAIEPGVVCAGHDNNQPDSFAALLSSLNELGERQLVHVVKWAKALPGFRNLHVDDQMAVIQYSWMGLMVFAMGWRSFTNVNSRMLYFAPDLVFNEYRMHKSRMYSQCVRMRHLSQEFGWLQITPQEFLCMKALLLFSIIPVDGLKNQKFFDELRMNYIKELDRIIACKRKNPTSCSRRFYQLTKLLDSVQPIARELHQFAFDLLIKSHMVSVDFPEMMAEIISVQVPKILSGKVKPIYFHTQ
Procedure: as §1, §2, §3, §4, §5, §6

[8] = molecular target: T7, CCK1 (CCKA) (h) (Homo sapiens, UniProt P32238); experiment: Cerep panel binding assay; settings: agonist radioligand
T7 construct: Eurofins Pharma Discovery (CRO that ran the assay) SafetyScreen44 Panel (Cerep, ITEM P270)
T7 sequence (P32238 whole entry): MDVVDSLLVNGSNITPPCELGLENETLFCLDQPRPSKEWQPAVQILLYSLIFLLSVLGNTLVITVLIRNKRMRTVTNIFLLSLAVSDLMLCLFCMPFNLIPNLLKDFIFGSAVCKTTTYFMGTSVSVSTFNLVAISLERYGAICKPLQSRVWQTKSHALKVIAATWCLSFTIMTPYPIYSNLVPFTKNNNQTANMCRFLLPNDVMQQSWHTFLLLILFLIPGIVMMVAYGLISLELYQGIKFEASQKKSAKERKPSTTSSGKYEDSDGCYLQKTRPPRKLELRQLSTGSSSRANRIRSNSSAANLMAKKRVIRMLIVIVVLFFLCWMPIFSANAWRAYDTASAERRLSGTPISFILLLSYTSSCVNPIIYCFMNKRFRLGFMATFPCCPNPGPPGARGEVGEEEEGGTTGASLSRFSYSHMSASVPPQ
Procedure: as §1, §2, §3, §4, §5, §6

[9] = molecular target: T8, dopamine transporter (h) (Homo sapiens, UniProt Q01959); experiment: Cerep panel binding assay; settings: antagonist radioligand
T8 construct: purchased Eurofins Pharma Discovery (Cerep) SafetyScreen44 Panel, ITEM P270
Procedure: as §1, §2, §3, §4, §5, §6

[10] = molecular target: T9, 5-HT2A (h) (Homo sapiens, UniProt P28223); experiment: Cerep panel binding assay; settings: agonist radioligand
T9 construct: Eurofins Pharma Discovery (CRO that ran the assay) SafetyScreen44 Panel (Cerep, ITEM P270)
T9 sequence (P28223 whole entry): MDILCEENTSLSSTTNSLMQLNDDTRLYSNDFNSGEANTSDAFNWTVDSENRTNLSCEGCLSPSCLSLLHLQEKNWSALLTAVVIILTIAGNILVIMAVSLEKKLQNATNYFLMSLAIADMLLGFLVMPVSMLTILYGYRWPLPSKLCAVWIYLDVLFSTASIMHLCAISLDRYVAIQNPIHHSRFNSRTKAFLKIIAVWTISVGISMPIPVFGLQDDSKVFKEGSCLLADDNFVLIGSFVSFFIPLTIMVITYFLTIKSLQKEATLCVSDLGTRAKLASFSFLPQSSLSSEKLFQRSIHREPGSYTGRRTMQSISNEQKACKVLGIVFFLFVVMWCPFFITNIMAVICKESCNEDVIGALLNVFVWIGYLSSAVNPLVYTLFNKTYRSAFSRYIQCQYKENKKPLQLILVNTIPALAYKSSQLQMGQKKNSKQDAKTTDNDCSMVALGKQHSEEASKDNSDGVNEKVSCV
Procedure: as §1, §2, §3, §4, §5, §6

[11] = molecular target: T10, M1 (h) (Homo sapiens, UniProt P11229); experiment: Cerep panel binding assay; settings: antagonist radioligand
T10 construct: Eurofins Pharma Discovery (CRO that ran the assay) SafetyScreen44 Panel (Cerep, ITEM P270)
Procedure: as §1, §2, §3, §4, §5, §6

[12] = molecular target: T11, alpha1A (h) (Homo sapiens, UniProt P35348); experiment: Cerep panel binding assay; settings: antagonist radioligand
T11 construct: purchased Eurofins Pharma Discovery (Cerep) SafetyScreen44 Panel, ITEM P270
Procedure: as §1, §2, §3, §4, §5, §6

[13] = molecular target: T12, GR (h) (Homo sapiens, UniProt P04150); experiment: Cerep panel binding assay; settings: agonist radioligand
T12 construct: purchased Eurofins Pharma Discovery (Cerep) SafetyScreen44 Panel, ITEM P270
Procedure: as §1, §2, §3, §4, §5, §6

[14] = tested on: BZD (central); experiment: Cerep panel binding assay; settings: 10 µM, agonist radioligand
Procedure: as §1, §2, §3, §4, §5, §6

[15] = molecular target: T13, H1 (h) (Homo sapiens, UniProt P35367); experiment: Cerep panel binding assay; settings: antagonist radioligand
T13 construct: purchased Eurofins Pharma Discovery (Cerep) SafetyScreen44 Panel, ITEM P270
T13 sequence (P35367 whole entry): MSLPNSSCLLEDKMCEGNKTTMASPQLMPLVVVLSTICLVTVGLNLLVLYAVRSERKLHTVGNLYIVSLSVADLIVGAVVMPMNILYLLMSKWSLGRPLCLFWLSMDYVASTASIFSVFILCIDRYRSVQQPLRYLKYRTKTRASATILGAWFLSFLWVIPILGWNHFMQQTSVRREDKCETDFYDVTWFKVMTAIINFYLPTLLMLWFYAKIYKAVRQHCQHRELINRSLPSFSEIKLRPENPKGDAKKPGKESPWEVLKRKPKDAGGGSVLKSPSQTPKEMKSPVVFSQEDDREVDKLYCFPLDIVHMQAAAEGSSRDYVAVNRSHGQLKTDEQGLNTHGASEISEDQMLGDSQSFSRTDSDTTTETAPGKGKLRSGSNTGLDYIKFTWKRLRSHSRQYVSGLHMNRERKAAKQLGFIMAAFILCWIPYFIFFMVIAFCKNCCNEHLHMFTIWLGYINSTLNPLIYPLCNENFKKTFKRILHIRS
Procedure: as §1, §2, §3, §4, §5, §6

[16] = molecular target: T14, beta2 (h) (Homo sapiens, UniProt P07550); experiment: Cerep panel binding assay; settings: antagonist radioligand
T14 construct: purchased Eurofins Pharma Discovery (Cerep) SafetyScreen44 Panel, ITEM P270
T14 sequence (P07550 whole entry): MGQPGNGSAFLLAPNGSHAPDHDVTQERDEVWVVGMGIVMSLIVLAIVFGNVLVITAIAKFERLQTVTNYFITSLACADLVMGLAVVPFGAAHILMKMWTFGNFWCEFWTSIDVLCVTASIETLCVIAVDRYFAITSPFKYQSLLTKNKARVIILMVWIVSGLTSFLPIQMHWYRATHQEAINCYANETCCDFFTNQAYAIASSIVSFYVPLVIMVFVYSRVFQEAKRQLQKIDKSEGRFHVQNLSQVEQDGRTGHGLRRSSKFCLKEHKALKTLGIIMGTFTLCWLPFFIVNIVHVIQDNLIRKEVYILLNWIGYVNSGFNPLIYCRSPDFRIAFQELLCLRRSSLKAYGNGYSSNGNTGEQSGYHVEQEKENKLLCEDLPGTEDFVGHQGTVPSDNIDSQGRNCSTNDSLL
Procedure: as §1, §2, §3, §4, §5, §6

[17] = molecular target: T15, 5-HT2B (h) (Homo sapiens, UniProt P41595); experiment: Cerep panel binding assay; settings: agonist radioligand
T15 construct: purchased Eurofins Pharma Discovery (Cerep) SafetyScreen44 Panel, ITEM P270
Procedure: as §1, §2, §3, §4, §5, §6

[18] = tested on: KV channel; experiment: Cerep panel binding assay; settings: 10 µM, antagonist radioligand
Procedure: as §1, §2, §3, §4, §5, §6

[19] = molecular target: T16, D1 (h) (Homo sapiens, UniProt P21728); experiment: Cerep panel binding assay; settings: antagonist radioligand
T16 construct: purchased Eurofins Pharma Discovery (Cerep) SafetyScreen44 Panel, ITEM P270
Procedure: as §1, §2, §3, §4, §5, §6

[20] = tested on: NMDA; experiment: Cerep panel binding assay; settings: 10 µM, antagonist radioligand
Procedure: as §1, §2, §3, §4, §5, §6

[21] = molecular target: T17, ETA (h) (Homo sapiens, UniProt P25101); experiment: Cerep panel binding assay; settings: agonist radioligand
T17 construct: Eurofins Pharma Discovery (CRO that ran the assay) SafetyScreen44 Panel (Cerep, ITEM P270)
Procedure: as §1, §2, §3, §4, §5, §6

[22] = molecular target: T18, CB1 (h) (Homo sapiens, UniProt P21554); experiment: Cerep panel binding assay; settings: agonist radioligand
T18 construct: purchased Eurofins Pharma Discovery (Cerep) SafetyScreen44 Panel, ITEM P270
Procedure: as §1, §2, §3, §4, §5, §6

[23] = molecular target: T19, kappa (h) (KOP) (Homo sapiens, UniProt P41145); experiment: Cerep panel binding assay; settings: agonist radioligand
T19 construct: purchased Eurofins Pharma Discovery (Cerep) SafetyScreen44 Panel, ITEM P270
Procedure: as §1, §2, §3, §4, §5, §6

[24] = molecular target: T20, alpha2A (h) (Homo sapiens, UniProt P08913); experiment: Cerep panel binding assay; settings: antagonist radioligand
T20 construct: purchased Eurofins Pharma Discovery (Cerep) SafetyScreen44 Panel, ITEM P270
T20 sequence (P08913 whole entry): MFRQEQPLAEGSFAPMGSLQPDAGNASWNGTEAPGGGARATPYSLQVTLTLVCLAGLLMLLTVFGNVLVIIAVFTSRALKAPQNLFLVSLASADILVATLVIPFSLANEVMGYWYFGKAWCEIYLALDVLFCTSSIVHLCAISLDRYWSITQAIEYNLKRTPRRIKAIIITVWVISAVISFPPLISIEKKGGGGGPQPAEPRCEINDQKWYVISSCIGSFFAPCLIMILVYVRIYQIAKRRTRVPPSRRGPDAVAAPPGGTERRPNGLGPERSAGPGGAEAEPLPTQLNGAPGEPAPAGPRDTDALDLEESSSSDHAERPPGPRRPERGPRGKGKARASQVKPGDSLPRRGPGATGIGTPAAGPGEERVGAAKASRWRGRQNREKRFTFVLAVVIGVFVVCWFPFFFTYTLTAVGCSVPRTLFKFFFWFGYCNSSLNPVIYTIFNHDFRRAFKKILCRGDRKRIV
Procedure: as §1, §2, §3, §4, §5, §6

[25] = molecular target: T21, delta (DOP) (h) (Homo sapiens, UniProt P41143); experiment: Cerep panel binding assay; settings: agonist radioligand
T21 construct: purchased Eurofins Pharma Discovery (Cerep) SafetyScreen44 Panel, ITEM P270
Procedure: as §1, §2, §3, §4, §5, §6

[26] = molecular target: T22, P2X4 receptor (Homo sapiens, UniProt Q99571); experiment: Ion channel profiling at Charles River: P2X4; format: cell-based; settings: expressed in HEK293 cells; read-out: ESTIMATED IC50
T22 construct: host or cells: HEK293 cells
Procedure: (§7) 1.4.3 Ion Channel Profiling at Charles River
(§8) Table S9. Compound 24 was tested against the following ion channels at Charles River Laboratories. […]
(§9) FLIPR Assay expressed in HEK293 cells
GABAA α5/β3/γ2 ionotropic receptor (human GABRA5, GABRB3, >30 and GABRG2 genes, expressed in HEK293 cells
P2X4 receptor (human P2RX4 gene) expressed in HEK293 cells >30 […]
(§10) An increase in the number of colonies of at least two-fold over baseline (mean + SD of the vehicle control) and a dose response indicate a positive response. An […]
(§11) different from the vehicle control.
(§12) Where indicated, S9 fraction from the livers of Aroclor 1254-treated rats were included in the incubation at a final concentration of 4.5%. A NADPH-regenerating system was also included to ensure a steady supply of reducing equivalents.

[27] = molecular target: T23, TRPA1 channel (Homo sapiens, UniProt O75762); experiment: Ion channel profiling at Charles River: TRPA1; format: cell-based; settings: expressed in CHO cells; read-out: ESTIMATED IC50
T23 construct: host or cells: CHO cells
T23 sequence (O75762 whole entry): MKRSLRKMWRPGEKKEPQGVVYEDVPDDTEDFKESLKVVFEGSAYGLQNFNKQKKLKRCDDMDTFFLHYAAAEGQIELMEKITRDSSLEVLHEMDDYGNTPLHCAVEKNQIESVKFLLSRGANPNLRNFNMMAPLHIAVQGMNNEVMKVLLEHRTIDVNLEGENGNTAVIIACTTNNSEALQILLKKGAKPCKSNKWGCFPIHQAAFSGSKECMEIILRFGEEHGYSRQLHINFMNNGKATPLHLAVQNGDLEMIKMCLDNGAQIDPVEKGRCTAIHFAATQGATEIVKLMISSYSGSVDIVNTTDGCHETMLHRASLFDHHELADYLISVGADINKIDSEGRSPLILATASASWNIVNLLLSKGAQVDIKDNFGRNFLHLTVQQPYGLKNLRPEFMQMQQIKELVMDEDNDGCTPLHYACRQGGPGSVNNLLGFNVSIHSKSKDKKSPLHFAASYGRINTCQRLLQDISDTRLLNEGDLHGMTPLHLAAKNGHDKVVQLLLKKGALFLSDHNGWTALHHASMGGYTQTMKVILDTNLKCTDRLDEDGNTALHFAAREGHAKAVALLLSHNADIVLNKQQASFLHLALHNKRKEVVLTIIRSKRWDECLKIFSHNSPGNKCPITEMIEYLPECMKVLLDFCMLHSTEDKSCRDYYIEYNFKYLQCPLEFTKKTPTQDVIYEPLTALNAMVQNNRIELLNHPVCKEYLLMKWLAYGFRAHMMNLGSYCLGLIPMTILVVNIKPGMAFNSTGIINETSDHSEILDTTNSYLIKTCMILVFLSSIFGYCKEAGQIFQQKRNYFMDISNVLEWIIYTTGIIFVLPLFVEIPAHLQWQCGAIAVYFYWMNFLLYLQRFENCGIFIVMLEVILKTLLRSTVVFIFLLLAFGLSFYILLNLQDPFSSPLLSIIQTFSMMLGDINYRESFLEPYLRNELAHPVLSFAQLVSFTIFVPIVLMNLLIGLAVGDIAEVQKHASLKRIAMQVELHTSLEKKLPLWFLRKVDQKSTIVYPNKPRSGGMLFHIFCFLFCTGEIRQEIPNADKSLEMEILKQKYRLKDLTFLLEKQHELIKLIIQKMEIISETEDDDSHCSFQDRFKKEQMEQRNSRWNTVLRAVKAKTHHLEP
Procedure: as §7, §8
ScreenPatch Assay Kv1.3 potassium channel (human KCNA3 gene) expressed in CHO […]
as §9
GABAA α5/β3/γ2 ionotropic receptor (human GABRA5, GABRB3, >30 and GABRG2 genes, expressed in HEK293 cells […]
TRPA1 channel (human TRPA1 gene) expressed in CHO cells >30 […]
as §10, §11, §12

In the case of `CC(C)Oc1ccc(-c2ncc(CNc3ccnc(C(F)(F)F)c3)cn2)cc1Cl` [Compound 24], the half-life [1] is reported as 50 min, the inhibition at 10 µM [2] is reported as 8.2% and the inhibition at 10 µM [3] is reported as 4.4%. The inhibition at 10 µM [4] was -6.7%, the “BINDING (%)” value [5] was 2.2% and the inhibition at 10 µM [6] was 31%. It also gave an inhibition at 10 µM [7] of 12.7%, an inhibition at 10 µM [8] of -12% and an inhibition at 10 µM [9] of 22.7%. It also gave an inhibition at 10 µM [10] of -2.8%, an inhibition at 10 µM [11] of -5.9% and an inhibition at 10 µM [12] of 3.4%. For the same compound, the inhibition at 10 µM [13] was 16.2%, the “BINDING (%)” value [14] was “–27.1%” and the inhibition at 10 µM [15] was 8.2%. For the same compound, the inhibition at 10 µM [16] was 7.9%, the inhibition at 10 µM [17] was 62.2% and the “BINDING (%)” value [18] was 14.2%. For the same compound, the inhibition at 10 µM [19] was 12.2%, the “BINDING (%)” value [20] was 0.9% and the inhibition at 10 µM [21] was -0.3%. For the same compound, the inhibition at 10 µM [22] was 16.3%, the inhibition at 10 µM [23] was 23.6% and the inhibition at 10 µM [24] was 8.4%. It also gave an inhibition at 10 µM [25] of 14.5%, an IC50 [26] greater than 30 µM and an IC50 [27] greater than 30 µM.
